Measurements taken from patent publication US11840686B2, “Modulation of prekallikrein (PKK) expression” (Ionis Pharmaceuticals, Inc., priority 2013, dated 2023).
Strand notation (5' to 3'): a small letter for the sugar, then the base; units joined by * are phosphorothioate-linked, units joined directly phosphodiester-linked; [ ] holds rarer units or linkages, { } end groups; capitals alone tell only the bases. e = 2'-O-(2-methoxyethyl) (MOE); k = constrained ethyl (cEt); [5mC] = 5-methylcytosine; d = 2'-deoxy (DNA)

Tested on: human PKK mRNA
Experiment: Antisense inhibition of human PKK mRNA in HepaRG cells, 1,000 nM, MOE/deoxy/cEt oligonucleotides (Example 3)
Assay type: cell-based
Outline: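 Readout is percent PKK mRNA reduction against untreated controls, by real-time PCR (RTS3454) adjusted for total RNA via RIBOGREEN. Oligonucleotides, phosphorothioate gapmers of 16 nucleosides with cEt, MOE and deoxy sugars, were delivered at 1,000 nM by electroporation to 20,000 HepaRG cells/well for roughly 24 h.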

[1] = HepaRG cells, electroporation with 1,000 nM antisense oligonucleotide, approximately 24 hours, primer probe set RTS3454, relative to untreated control cells, experiment of Table 23
[2] = Table 19, HepaRG cells, electroporation with 1,000 nM antisense oligonucleotide, approximately 24 hours, PKK mRNA by RT-PCR (RTS3454), relative to untreated control cells
[3] = HepaRG cells, electroporation with 1,000 nM antisense oligonucleotide, approx. 24 hours, PKK mRNA by RT-PCR (RTS3454), relative to untreated control cells, Table 26 experiment
[4] = Table 27, HepaRG cells, 1,000 nM antisense oligonucleotide, human PKK mRNA
[5] = Table 28, HepaRG cells, 1,000 nM antisense oligonucleotide, human PKK mRNA
[6] = Table 21 experiment, HepaRG cells, electroporation with 1,000 nM antisense oligonucleotide, approx. 24 hours, PKK mRNA by RT-PCR (RTS3454), relative to untreated control cells
[7] = HepaRG cells, electroporation with 1,000 nM antisense oligonucleotide, approximately 24 hours, primer probe set RTS3454, relative to untreated control cells, experiment of Table 24
[8] = HepaRG cells, 1,000 nM antisense oligonucleotide, Table 29
[9] = PKK mRNA, HepaRG cells, 1,000 nM antisense oligonucleotide, Table 31
[10] = HepaRG cells, electroporation with 1,000 nM antisense oligonucleotide, approx. 24 hours, PKK mRNA by RT-PCR (RTS3454), relative to untreated control cells, Table 25 experiment
[11] = Table 30, human PKK mRNA, HepaRG cells, 1,000 nM antisense oligonucleotide

## 547995 (antisense eG*eT*kG*dT*d[5mC]*d[5mC]*d[5mC]*dA*dT*dA*d[5mC]*dG*d[5mC]*kA*kA*eT) [compound 547995]
[1]
  % inhibition: 64%

## 548115 (antisense e[5mC]*eA*kT*dG*d[5mC]*dT*dG*dG*dT*dG*dA*d[5mC]*dT*kG*k[5mC]*eA) [compound 548115]
[2]
  % inhibition: 76%

## 548267 (antisense eG*eA*k[5mC]*d[5mC]*dT*d[5mC]*d[5mC]*dA*dG*dA*d[5mC]*dT*dA*k[5mC]*kT*eG) [compound 548267]
[3]
  % inhibition: 34%

## 548375 (eT*e[5mC]*kG*dA*d[5mC]*dT*dT*d[5mC]*dT*d[5mC]*d[5mC]*dT*dG*kT*k[5mC]*eT; antisense) [compound 548375]
[4]
  % inhibition: 27%

## 548532 (antisense eT*eA*kT*dT*dT*dA*dT*d[5mC]*d[5mC]*dG*dA*d[5mC]*d[5mC]*kT*k[5mC]*eT) [compound 548532]
[5]
  % inhibition: 34%

## 547831 (e[5mC]*eT*kG*d[5mC]*dA*d[5mC]*d[5mC]*dT*dG*dT*dT*d[5mC]*dG*kA*kT*eG; antisense) [compound 547831]
[6]
  % inhibition: 49%

## 548056 (eG*eT*kG*dT*dA*dA*dT*dT*d[5mC]*dA*dA*dA*dG*kG*kA*eG; antisense) [compound 548056]
[7]
  % inhibition: 40%

## 548059 (eT*eA*kG*dG*d[5mC]*dA*dT*dA*dT*dT*dG*dG*dT*kT*kT*eT; antisense) [compound 548059]
[7]
  % inhibition: 50%

## 547812 (eG*eT*kG*d[5mC]*dA*d[5mC]*d[5mC]*dT*d[5mC]*dA*dT*d[5mC]*dT*kG*kG*e[5mC]; antisense) [compound 547812]
[6]
  % inhibition: 51%

## 547819 (e[5mC]*eA*kT*dT*dG*dA*dT*dT*dG*dA*dA*d[5mC]*dT*kT*kG*e[5mC]; antisense) [compound 547819]
[6]
  % inhibition: 11%

## 547989 (antisense e[5mC]*eT*kG*dA*d[5mC]*dA*dG*d[5mC]*dG*dA*dA*dT*d[5mC]*kA*kT*e[5mC]) [compound 547989]
[1]
  % inhibition: 66%

## 548601 (eT*eT*kG*dG*dT*dG*dG*dT*dG*dG*dG*dA*dT*kT*kG*eG; antisense) [compound 548601]
[8]
  % inhibition: 18%

## 548677 (antisense eT*e[5mC]*kA*d[5mC]*d[5mC]*dT*dG*dT*dG*dA*dG*dT*dA*kA*k[5mC]*e[5mC]) [compound 548677]
[9]
  % inhibition: 40%

## 548478 (eG*eA*kG*d[5mC]*d[5mC]*dA*dT*d[5mC]*d[5mC]*dA*dG*dG*dG*kT*kG*e[5mC]; antisense) [compound 548478]
[5]
  % inhibition: 53%

## 548508 (antisense eG*e[5mC]*kA*d[5mC]*d[5mC]*dA*d[5mC]*d[5mC]*dA*dT*dG*d[5mC]*dG*kG*kT*eT) [compound 548508]
[5]
  % inhibition: 43%

## 548614 (antisense eT*eG*kG*dT*dG*dG*d[5mC]*dG*dG*dG*dA*dT*d[5mC]*kG*kG*eT) [compound 548614]
[9]
  % inhibition: 0%

## 548203 (eT*eG*kA*d[5mC]*dT*dA*dG*dT*dG*dA*dA*dT*dG*kG*k[5mC]*eT; antisense) [compound 548203]
[10]
  % inhibition: 73%

## 548485 (eG*eT*kG*dA*d[5mC]*d[5mC]*d[5mC]*dA*dA*dG*dG*dG*dT*k[5mC]*kG*eA; antisense) [compound 548485]
[5]
  % inhibition: 17%

## 548401 (eG*e[5mC]*k[5mC]*dA*dG*d[5mC]*dT*dA*dT*dG*dG*dG*dA*kA*k[5mC]*eA; antisense) [compound 548401]
[11]
  % inhibition: 71%

## 548224 (e[5mC]*e[5mC]*kA*dT*dA*dG*dA*d[5mC]*d[5mC]*d[5mC]*dA*dG*dA*kA*kT*e[5mC]; antisense) [compound 548224]
[10]
  % inhibition: 20%

## 548276 (antisense e[5mC]*eA*kG*dA*dG*dT*dG*dT*d[5mC]*dA*dT*d[5mC]*dT*kG*k[5mC]*eG) [compound 548276]
[3]
  % inhibition: 49%

## 548077 (eA*eT*kT*dT*dG*dT*dT*dA*d[5mC]*d[5mC]*dA*dA*dA*kG*kG*eA; antisense) [compound 548077]
[2]
  % inhibition: 51%

## 548017 (e[5mC]*eA*kA*dG*dA*dA*dG*dA*dG*dT*dT*dT*dG*kT*kT*e[5mC]; antisense) [compound 548017]
[7]
  % inhibition: 3%

## 547832 (eA*e[5mC]*kT*dG*d[5mC]*dA*d[5mC]*d[5mC]*dT*dG*dT*dT*d[5mC]*kG*kA*eT; antisense) [compound 547832]
[6]
  % inhibition: 59%

## 547907 (eA*eT*kT*dT*d[5mC]*dT*dG*dA*dA*dA*dG*dG*dG*k[5mC]*kA*e[5mC]; antisense) [compound 547907]
Table 20, HepaRG cells, electroporation with 1,000 nM antisense oligonucleotide, approximately 24 hours, PKK mRNA by RT-PCR (RTS3454), relative to untreated control cells
  % inhibition: 27%
Table 22 experiment, HepaRG cells, electroporation with 1,000 nM antisense oligonucleotide, approx. 24 hours, PKK mRNA by RT-PCR (RTS3454), relative to untreated control cells
  % inhibition: 27%

## 548354 (antisense eA*eT*kG*dT*d[5mC]*d[5mC]*d[5mC]*d[5mC]*dA*dG*dT*dG*dG*kA*kA*eG) [compound 548354]
[4]
  % inhibition: 41%

## 548175 (eA*eT*k[5mC]*dT*d[5mC]*dA*dG*dT*dT*dG*d[5mC]*dG*dA*k[5mC]*k[5mC]*eT; antisense) [compound 548175]
[10]
  % inhibition: 0%

## 547961 (eT*eT*kG*d[5mC]*dA*dG*dG*dT*dT*dA*dA*dA*dA*kG*kG*e[5mC]; antisense) [compound 547961]
[1]
  % inhibition: 5%

## 547939 (eT*eT*kT*dG*dT*dG*dA*d[5mC]*dT*d[5mC]*dG*dA*dT*kT*kT*eT; antisense) [compound 547939]
[1]
  % inhibition: 70%

## 548172 (eT*e[5mC]*kA*dG*dT*dT*dG*d[5mC]*dG*dA*d[5mC]*d[5mC]*dT*k[5mC]*kG*e[5mC]; antisense) [compound 548172]
[10]
  % inhibition: 0%

## 547786 (antisense eA*eG*kT*dT*dG*d[5mC]*dT*dT*dG*d[5mC]*dT*dT*dG*kA*kA*eT) [compound 547786]
[6]
  % inhibition: 44%

## 547792 (antisense eT*e[5mC]*k[5mC]*dA*d[5mC]*dA*dG*dG*dA*dA*dA*d[5mC]*dT*kG*kT*eA) [compound 547792]
[6]
  % inhibition: 31%

## 548470 (eG*eG*kT*dG*dG*dA*dA*dT*dG*dT*d[5mC]*dA*dT*kG*kG*e[5mC]; antisense) [compound 548470]
[5]
  % inhibition: 56%

## 548228 (eG*eT*kT*dG*dT*dG*dT*dG*dG*d[5mC]*d[5mC]*d[5mC]*dT*k[5mC]*kT*eT; antisense) [compound 548228]
[3]
  % inhibition: 37%

## 547759 (antisense eT*eG*kA*dG*dT*d[5mC]*dT*d[5mC]*dT*dT*dG*dT*d[5mC]*kA*k[5mC]*eT) [compound 547759]
[6]
  % inhibition: 73%

## 548063 (eG*eT*kA*dT*dA*dA*dA*dT*dT*dG*dT*dG*d[5mC]*kT*kT*eG; antisense) [compound 548063]
[7]
  % inhibition: 35%

## 547930 (eT*eG*kA*dT*dA*dG*dG*dT*dG*d[5mC]*dA*dG*dA*kT*kG*eG; antisense) [compound 547930]
[1]
  % inhibition: 48%

## 548680 (antisense eG*e[5mC]*k[5mC]*d[5mC]*d[5mC]*dT*d[5mC]*dT*dT*dA*dA*dA*dT*kA*kG*e[5mC]) [compound 548680]
[9]
  % inhibition: 9%

## 548517 (antisense e[5mC]*eG*kG*dA*d[5mC]*dA*dA*dG*d[5mC]*d[5mC]*dT*dT*dA*k[5mC]*kA*eG) [compound 548517]
[5]
  % inhibition: 43%

## 548145 (eA*eT*kG*d[5mC]*dA*dA*dA*dG*dA*dA*dG*dA*dT*kG*k[5mC]*e[5mC]; antisense) [compound 548145]
[2]
  % inhibition: 63%

## 548216 (eG*eT*kG*d[5mC]*dA*dT*dA*dG*dA*d[5mC]*d[5mC]*d[5mC]*d[5mC]*kA*kA*e[5mC]; antisense) [compound 548216]
[10]
  % inhibition: 45%

## 548431 (antisense eT*eA*k[5mC]*d[5mC]*dT*dA*dT*dA*dA*d[5mC]*dT*d[5mC]*dT*kA*kA*e[5mC]) [compound 548431]
[11]
  % inhibition: 9%

## 548543 (antisense eG*eA*kT*d[5mC]*d[5mC]*dA*d[5mC]*d[5mC]*d[5mC]*dA*dT*dG*dA*k[5mC]*k[5mC]*eT) [compound 548543]
[8]
  % inhibition: 32%

## 548495 (antisense eT*eT*kG*dT*dG*dA*d[5mC]*d[5mC]*d[5mC]*d[5mC]*d[5mC]*d[5mC]*dA*k[5mC]*k[5mC]*eG) [compound 548495]
[5]
  % inhibition: 55%

## 548561 (antisense eT*eG*kT*dA*dG*dT*dA*dT*d[5mC]*d[5mC]*dA*dG*dA*kG*kT*eA) [compound 548561]
[8]
  % inhibition: 46%
